Source: PubChem BioAssay AID248 (DTP/NCI, 2004)
Where “and” joins values, the source holds several entries; their conditions need not be identical. Equal values may be shown once. Inconclusive results and toxic doses are left out. Cut-off read from the data, not from the text of the source: active = T/C of 150% or more; inactive = T/C below 125%.

System: L1210 leukemia ip in BDF1 mice, survival T/C
Test: NCI In Vivo Anticancer Drug Screen. Data for tumor model L1210 Leukemia (intraperitoneal) in B6D2F1 (BDF1) mice
Details: endpoint: mean survival time, higher = longer survival
In short: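 Tumor was transplanted into mice, which were then dosed with test compound or vehicle alone. Survival was recorded for each group, and the treated figure was expressed relative to the control figure.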

[1] = dose: 100.0 mg/kg/injection, schedule: Q01DX009 (ip), vehicle: Klucel (hydroxypropylcellulose) (HPC)
[2] = dose: 200.0 mg/kg/injection, schedule: Q01DX009 (ip), vehicle: Klucel (hydroxypropylcellulose) (HPC)
[3] = dose: 200.0 mg/kg/injection, schedule: Q04DX003 (ip), vehicle: saline with Tween-80
[4] = dose: 400.0 mg/kg/injection, schedule: Q01DX009 (ip), vehicle: saline with Tween-80
[5] = dose: 100.0 mg/kg/injection, schedule: Q04DX002 (ip), vehicle: saline
[6] = dose: 200.0 mg/kg/injection, schedule: Q04DX002 (ip), vehicle: saline
[7] = dose: 100.0 mg/kg/injection, schedule: Q04DX003 (ip), vehicle: saline
[8] = dose: 200.0 mg/kg/injection, schedule: Q04DX003 (ip), vehicle: saline
[9] = dose: 400.0 mg/kg/injection, schedule: Q04DX003 (ip), vehicle: saline
[10] = dose: 25.0 mg/kg/injection, schedule: Q01DX009 (ip), vehicle: saline with Tween-80
[11] = dose: 50.0 mg/kg/injection, schedule: Q01DX009 (ip), vehicle: saline with Tween-80
[12] = dose: 100.0 mg/kg/injection, schedule: Q01DX001 (ip), vehicle: saline
[13] = dose: 200.0 mg/kg/injection, schedule: Q01DX001 (ip), vehicle: saline
[14] = dose: 400.0 mg/kg/injection, schedule: Q01DX001 (ip), vehicle: saline
[15] = dose: 100.0 mg/kg/injection, schedule: Q01DX009 (ip), vehicle: saline
[16] = dose: 200.0 mg/kg/injection, schedule: Q01DX009 (ip), vehicle: saline
[17] = dose: 100.0 mg/kg/injection, schedule: Q01DX009 (ip), vehicle: saline with Tween-80

Measured: T/C

COc1ccc(C(O)c2cc(-c3ccncc3)c(C(O)c3ccc(OC)cc3)nn2)cc1 (stereo not given)
inactive: dose: 100.0 mg/kg/injection, schedule: Q04DX003 (ip), vehicle: gum acacia 94 % of control | dose: 200.0 mg/kg/injection, schedule: Q04DX003 (ip), vehicle: gum acacia 96 % of control | dose: 400.0 mg/kg/injection, schedule: Q04DX003 (ip), vehicle: gum acacia 88 % of control

CN(N=O)C(=O)NCCn1cnc2c(=S)nc[nH]c21
inactive: dose: 6.0 mg/kg/injection, schedule: Q01DX Z (ip), vehicle: carboxymethylcellulose (CMC) 95 % of control | dose: 12.0 mg/kg/injection, schedule: Q01DX Z (ip), vehicle: carboxymethylcellulose (CMC) 92 % of control | dose: 25.0 mg/kg/injection, schedule: Q01DX Z (ip), vehicle: carboxymethylcellulose (CMC) 109 % of control | dose: 50.0 mg/kg/injection, schedule: Q01DX Z (ip), vehicle: carboxymethylcellulose (CMC) 114 % of control | dose: 100.0 mg/kg/injection, schedule: Q01DX Z (ip), vehicle: carboxymethylcellulose (CMC) 104 % of control | dose: 150.0 mg/kg/injection, schedule: Q01DX Z (ip), vehicle: carboxymethylcellulose (CMC) 121 % of control

Cc1ccccc1OCc1nc(-c2ccc(N(CCCl)CCCl)cc2)cs1
inactive: dose: 100.0 mg/kg/injection, schedule: Q01DX001 (ip), vehicle: carboxymethylcellulose (CMC) 101 % of control | dose: 200.0 mg/kg/injection, schedule: Q01DX001 (ip), vehicle: carboxymethylcellulose (CMC) 113 % of control | dose: 400.0 mg/kg/injection, schedule: Q01DX001 (ip), vehicle: carboxymethylcellulose (CMC) 104 % of control

CCOC(=O)c1ccc(NC(=O)NCCCCCCNC(=O)Nc2ccc(C(=O)OCC)cc2)cc1
inactive: [1] 90 % of control | [2] 100 % of control | dose: 400.0 mg/kg/injection, schedule: Q01DX009 (ip), vehicle: Klucel (hydroxypropylcellulose) (HPC) 100 % of control

O=C(O)CCC(=O)NNC(=O)Cc1c[nH]c2ccccc12
inactive: dose: 100.0 mg/kg/injection, schedule: Q01DX001 (ip), vehicle: other 106 % of control | dose: 100.0 mg/kg/injection, schedule: Q04DX003 (ip), vehicle: other 95 % of control | dose: 200.0 mg/kg/injection, schedule: Q01DX001 (ip), vehicle: other 106 % of control | dose: 200.0 mg/kg/injection, schedule: Q04DX003 (ip), vehicle: other 94 % of control | dose: 400.0 mg/kg/injection, schedule: Q01DX001 (ip), vehicle: other 97 % of control | dose: 400.0 mg/kg/injection, schedule: Q04DX003 (ip), vehicle: other 94 % of control

O=C1C(=O)N(CNC(c2ccccc2)c2ccccc2)c2ccccc21
inactive: [3] 87 % of control | [4] 96 % of control

CCN(CC)CC[n+]1ccccc1
inactive: [5] 93 % of control | [6] 100 % of control

O=C(C1C2C=CC(CC2)C1C(=O)N1CCOCC1)N1CCOCC1 (stereo not given)
inactive: [7] 100 % of control | [8] 96 % of control | [9] 96 % of control

CC1(C)C=C(C(Br)c2ccc(Cl)cc2)C(=O)c2ccccc21 (stereo not given)
inactive: dose: 50.0 mg/kg/injection, schedule: Q01DX009 (ip), vehicle: Klucel (hydroxypropylcellulose) (HPC) 110 % of control | [1] 105 % of control | dose: 100.0 mg/kg/injection, schedule: Q04DX003 (ip), vehicle: Klucel (hydroxypropylcellulose) (HPC) 95 % of control | [2] 100 % of control | dose: 200.0 mg/kg/injection, schedule: Q04DX003 (ip), vehicle: Klucel (hydroxypropylcellulose) (HPC) 92 % of control

FC(F)(F)C(F)(F)C(F)(F)c1nc2nc(Cl)c(Cl)nc2[nH]1
inactive: [10] 111 % of control | [11] 96 % of control and 100 % of control | dose: 100.0 mg/kg/injection, schedule: Q04DX003 (ip), vehicle: saline with Tween-80 91 % of control | [3] 93 % of control

O=NN(CCCCl)C(=O)NC1CCCCC1
inactive: dose: 12.5 mg/kg/injection, schedule: Q01DX001 (ip), vehicle: saline 103 % of control | dose: 25.0 mg/kg/injection, schedule: Q01DX001 (ip), vehicle: saline 108 % of control | dose: 50.0 mg/kg/injection, schedule: Q01DX001 (ip), vehicle: saline 103 % of control | [12] 103 % of control | [13] 102 % of control | dose: 300.0 mg/kg/injection, schedule: Q01DX001 (ip), vehicle: saline 106 % of control | [14] 110 % of control | dose: 500.0 mg/kg/injection, schedule: Q01DX001 (ip), vehicle: saline 100 % of control | dose: 600.0 mg/kg/injection, schedule: Q01DX001 (ip), vehicle: saline 106 % of control | dose: 800.0 mg/kg/injection, schedule: Q01DX001 (ip), vehicle: saline 112 % of control | dose: 1000.0 mg/kg/injection, schedule: Q01DX001 (ip), vehicle: saline 103 % of control

CN(CC(=O)O)C(=O)c1ccccc1
inactive: dose: 75.0 mg/kg/injection, schedule: Q01DX001 (ip), vehicle: saline 96 % of control | dose: 150.0 mg/kg/injection, schedule: Q01DX001 (ip), vehicle: saline 96 % of control

CCOC(=O)Cn1c(C)cnc1C
inactive: [12] 112 % of control | [15] 96 % of control and 108 % of control | dose: 100.0 mg/kg/injection, schedule: Q04DX002 (ip), vehicle: Klucel (hydroxypropylcellulose) (HPC) 107 % of control | [5] 98 % of control | [7] 101 % of control | [13] 104 % of control | [16] 101 % of control and 91 % of control | dose: 200.0 mg/kg/injection, schedule: Q04DX002 (ip), vehicle: Klucel (hydroxypropylcellulose) (HPC) 100 % of control | [6] 113 % of control | [8] 99 % of control | [14] 98 % of control | dose: 400.0 mg/kg/injection, schedule: Q01DX009 (ip), vehicle: saline 96 % of control and 103 % of control | dose: 400.0 mg/kg/injection, schedule: Q04DX002 (ip), vehicle: Klucel (hydroxypropylcellulose) (HPC) 111 % of control | dose: 400.0 mg/kg/injection, schedule: Q04DX002 (ip), vehicle: saline 98 % of control | [9] 99 % of control

CC1(C)C=CC2CC2(C)C(=O)C1 (stereo not given)
inactive: dose: 100.0 mg/kg/injection, schedule: Q04DX002 (ip), vehicle: saline with Tween-80 98 % of control | dose: 200.0 mg/kg/injection, schedule: Q04DX002 (ip), vehicle: saline with Tween-80 112 % of control | dose: 400.0 mg/kg/injection, schedule: Q04DX002 (ip), vehicle: saline with Tween-80 102 % of control

CC(=O)Nc1cc(C/C(N)=N/O)cc(NC(C)=O)c1
inactive: [17] 97 % of control | dose: 200.0 mg/kg/injection, schedule: Q01DX009 (ip), vehicle: saline with Tween-80 92 % of control | [4] 100 % of control

COC(=O)Cc1cc(=O)c2ccccc2[nH]1
inactive: dose: 50.0 mg/kg/injection, schedule: Q01DX009 (ip), vehicle: saline 94 % of control | [15] 103 % of control | [7] 96 % of control | [16] 93 % of control | [8] 96 % of control | [9] 91 % of control

O=C(O)c1cc(S(=O)(=O)F)c(Cl)cc1Cl
inactive: [10] 102 % of control | [11] 103 % of control | [17] 100 % of control and 101 % of control
